Tests used:
[1] = Solubility of DHEA in ethanol and MCT oil; format: physicochemical
From the text: An alcohol-soluble species is a species that is insoluble in water and has a greater solubility in ethanol than in medium chain triglyceride (MCT) oils. […] Alcohol-soluble species are preferably pharmacologically active, more preferably are a drug or a supplement, and neither include nor are water. Thus, liquids and solids may exist that technically are soluble in alcohol, but because they also are soluble in water or more or equivalently soluble in MCT oils than in ethanol are not “alcohol-soluble species”.
Solubilized means that the alcohol-soluble species to be delivered is in the solution of the droplet. […] Thus, if either average particle diameters greater than 200 nm or precipitated crystals visible to the naked eye form, the alcohol-soluble species is not solubilized in the solution of the droplet. If an alcohol-soluble species is not solubilized in the solution, it is insoluble in the solution. In many respects, solubility may be thought of as a concentration dependent continuum. For example, the following descriptive terms may be used to express solubility of a solute in a solvent (grams solid/mL of solvent) at 25 degrees Celsius: […]

[2] = Formation of visually clear, shelf-stable MOIW microemulsions with phospholipid and polyethylene glycol derivative; format: physicochemical; details: used in conjunction with the phospholipid
From the text: A shelf-stable microemulsion may be determined in one of two ways. […] Either type of dissociation means that the microemulsion is not shelf-stable.
A visually clear microemulsion has an average particle diameter of 200 nm and less and lacks precipitated solid crystals visible to the naked eye.

Compound | descriptive solubility level in MCT oil ([1]; MCT oil) | solubility in MCT oil ([1]; MCT oil) | descriptive solubility level in ethanol ([1]; ethanol) | solubility in ethanol ([1]; ethanol) | phospholipid to polyethylene glycol derivative ratios resulting in visually clear, shelf-stable microemulsions [2]
C[C@]12CC[C@H](O)CC1=CC[C@@H]1[C@@H]2CC[C@]2(C)C(=O)CC[C@@H]12 [DHEA, dehydroepiandrosterone (3-beta-hydroxyandrosteron-5-en-17-one)] | sparingly soluble | approximately 10 mg/mL | freely soluble | approximately 150 mg/mL | 
polysorbate 20 |  |  |  |  | did not form visually clear, shelf-stable microemulsions

— patent US20230114405A1, “Microemulsion Delivery Systems for A Female Hormone Blend with Alcohol-Soluble Species Including Nonderivatized Hormones” (Quicksilver Scientific, Inc., priority 2019, published 2023)
